In US8288371B2, “Ortho pyrrolidine, benzyl-substituted heterocycle CCR1 antagonists for autoimmune diseases and inflammation” (Pharmacopeia, LLC, priority 2007, dated 2012):

Each compound was assayed against T1, human CCR1 (Homo sapiens, UniProt P32246) (assay: CCR1 binding protocol (SPA, [125I]-MIP-1α displacement)). Conditions: cell membrane expressing human CCR1, 0.1 nM [125I]-MIP-1α, 4 hours at ambient temperature; read-out: Relative potency (IC50).
T1 sequence (P32246 1-355): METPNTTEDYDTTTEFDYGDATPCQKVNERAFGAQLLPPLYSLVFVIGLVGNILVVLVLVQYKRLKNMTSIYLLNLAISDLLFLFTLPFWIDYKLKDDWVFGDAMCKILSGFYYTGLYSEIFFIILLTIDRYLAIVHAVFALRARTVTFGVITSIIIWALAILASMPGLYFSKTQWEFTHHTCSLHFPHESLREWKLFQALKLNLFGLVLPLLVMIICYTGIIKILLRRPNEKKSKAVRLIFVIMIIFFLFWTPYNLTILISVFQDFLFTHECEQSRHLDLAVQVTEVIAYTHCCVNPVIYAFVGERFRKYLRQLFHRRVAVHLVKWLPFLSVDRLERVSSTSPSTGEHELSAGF
Summary of the method: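 Human CCR1 membranes (0.5 μg/well) on SPA beads were incubated with compound and 0.1 nM [125I]-MIP-1α (final) for 4 h at ambient temperature. Buffer was Tris pH 7.4 with NaCl, KCl, MnCl and 0.1% BSA. IC50 came from ½-log compound dilutions (10 mM top DMSO stock) by displacement of bound radioligand.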

IC50, 500 to 5000 nM:
Cc1nnc([C@H]2CCCN2C(=O)Nc2ccc3[nH]ccc3c2)n1Cc1ccc(Cl)cc1 [Compound 603]
Cc1nnc([C@H]2CCCN2C(=O)Nc2cccc(-c3ccnn3C)c2)n1Cc1ccc(Cl)cc1 [Compound 620]
Cc1nnc([C@H]2CCCN2C(=O)NCC2(c3cccs3)CCOCC2)n1Cc1ccc(Cl)cc1 [Compound 623]
Cc1noc(C)c1CC(=O)N1CCC[C@@H]1c1ncnn1Cc1ccc(Cl)cc1 [Compound 631]

IC50, 50 to 500 nM:
Cc1nnc([C@H]2CCCN2C(=O)NCCC2CCCCO2)n1Cc1ccc(Cl)cc1 (some centres unmarked) [Compound 602]
Cc1nc(C(F)(F)F)ccc1N/C(=N\O)N1CCC[C@@H]1c1nnc(C)n1Cc1ccc(Cl)cc1 [Compound 605]
Cc1cc(C)c(S(=O)(=O)N(C)C)cc1Nc1c(N2CCC[C@@H]2c2nnc(C)n2Cc2ccc(Cl)cc2)c(=O)c1=O [Compound 609]
Cc1nnc([C@H]2CCCN2/C(=C/[N+](=O)[O-])NCc2ccc(Cl)cc2Cl)n1Cc1ccc(Cl)cc1 [Compound 612]
Cc1nnc([C@H]2CCCN2/C(=C/[N+](=O)[O-])Nc2ccc(Cl)cc2F)n1Cc1ccc(Cl)cc1 [Compound 613]
Cc1nc(C(F)(F)F)ccc1CC(=O)N1CCC[C@@H]1c1ncnn1Cc1ccc(Cl)cc1 [Compound 617]
Cc1nnc([C@H]2CCCN2C(=O)Nc2cccc(-c3ccn(C)n3)c2)n1Cc1ccc(Cl)cc1 [Compound 621]
Cc1ccc([C@H](C)NC(=O)N2CCC[C@@H]2c2nnc(C)n2Cc2ccc(Cl)cc2)c(C)n1 [Compound 626]
O=C(Nc1ccc(Cl)cc1F)N1CCC[C@@H]1c1nnsc1Cc1ccc(Cl)cc1 [Compound 628]
Cc1noc(C)c1CC(=O)N1CCC[C@@H]1c1nncn1Cc1ccc(Cl)cc1 [Compound 629]
Cc1noc(C)c1CC(=O)N1C[C@@H](O)C[C@@H]1c1nnc(C)n1Cc1ccc(Cl)cc1 [Compound 630]
Cc1nnc([C@H]2CCCN2C(=O)Nc2ccc(C(F)(F)F)nc2)n1Cc1ccc(Cl)cc1 [Compound 633]
CCc1cc(Cn2c(C)nnc2[C@H]2CCCN2C(=O)Nc2ccc(Cl)cc2F)ccc1Cl [Compound 635]

IC50, < 50 nM:
CC(=O)N1CCC(NC(=O)N2CCC[C@@H]2c2nnc(C)n2Cc2ccc(Cl)cc2)c2ccccc21 (some centres unmarked) [Compound 604]
Cc1nnc([C@H]2CCCN2C(=S)Nc2ccc(Cl)cc2F)n1Cc1ccc(Cl)cc1 [Compound 606]
Cc1nc(C(F)(F)F)ccc1NC(=S)N1CCC[C@@H]1c1nnc(C)n1Cc1ccc(Cl)cc1 [Compound 607]
Cc1nnc([C@H]2CCCN2C(=S)Nc2ccc(C(F)(F)F)cc2)n1Cc1ccc(Cl)cc1 [Compound 608]
Cc1nc(C(F)(F)F)ccc1CC(=O)N1CCC[C@@H]1c1nnc(C)n1Cc1ccc(Cl)cc1 [Compound 610]
Cc1noc(C)c1N/C(=C\[N+](=O)[O-])N1CCC[C@@H]1c1nnc(C)n1Cc1ccc(Cl)cc1 [Compound 611]
CC[C@H](N/C(=C/[N+](=O)[O-])N1CCC[C@@H]1c1nnc(C)n1Cc1ccc(Cl)cc1)c1ccc(C(F)(F)F)nc1 [Compound 614]
Cc1onc(C(F)(F)F)c1NC(=O)N1CCC[C@@H]1c1nnc(C)n1Cc1ccc(Cl)cc1 [Compound 615]
Cc1noc(C(F)(F)F)c1NC(=O)N1CCC[C@@H]1c1nnc(C)n1Cc1ccc(Cl)cc1 [Compound 616]
Cc1nc(C(F)(F)F)ccc1CC(=O)N1CCC[C@@H]1c1nncn1Cc1ccc(Cl)cc1 [Compound 618]
Cc1nc(C(F)(F)F)ccc1CC(=O)N1C[C@@H](O)C[C@@H]1c1nnc(C)n1Cc1ccc(Cl)cc1 [Compound 619]
Cc1nnc([C@H]2CCCN2C(=O)NCc2ccccc2-c2cc(C(F)(F)F)nn2C)n1Cc1ccc(Cl)cc1 [Compound 622]
Cc1nc(C(F)(F)F)ccc1[C@H](C)NC(=O)N1CCC[C@@H]1c1nnc(C)n1Cc1ccc(Cl)cc1 [Compound 624]
CC[C@H](NC(=O)N1CCC[C@@H]1c1nnc(C)n1Cc1ccc(Cl)cc1)c1ccc(C)nc1C [Compound 625]
CC[C@H](NC(=O)N1CCC[C@@H]1c1nnc(C)n1Cc1ccc(Cl)cc1)c1ccc(C(F)(F)F)nc1C [Compound 627]
Cc1nc(C(F)(F)F)ccc1NC(=O)N1CCC[C@@H]1c1nnsc1Cc1ccc(Cl)cc1 [Compound 632]
CCc1cc(Cn2c(C)nnc2[C@H]2CCCN2C(=O)Nc2ccc(C(F)(F)F)nc2C)ccc1Cl [Compound 634]
Cc1nc(C(F)(F)F)ccc1NC(=O)N1CC=C[C@@H]1c1nnc(C)n1Cc1ccc(Cl)cc1 [Compound 636]
